# Data reported in US10537523B2, “Oral suspension comprising telmisartan” (Boehringer Ingelheim Vetmedica GmbH, priority 2009, dated 2020).
# Assay: pH-dependent solubility of telmisartan in aqueous formulation
# Type: physicochemical
# Settings: concentrations of active substance greater than 1 mg/ml
# Description: The aim of the present invention is to provide a pharmaceutical solution, preferably a drinkable pharmaceutical solution containing an angiotensin-II-receptor antagonist. Preferred angiotensin II receptor antagonists are the substances known by the following INN names: candesartan, eprosartan, irbesartan, losartan, olmesartan, tasosartan, telmisartan and valsartan, and the pharmaceutically acceptable salts, hydrates or polymorphs thereof. The concentration of the angiotensin-II-receptor antagonist, preferably telmisartan, needed in the solution in order to achieve therapeutic doses should be between 1 mg/ml and 10 mg/ml. Moreover, because of the strongly pH-dependent solubility profile of telmisartan an aqueous formulation should have a pH that is either less than 2 or more than 10, in order to ensure a physically stable solution.
# The very powerfully astringent effect of such acidic solutions makes acidic formulations of this kind totally unsuitable for long-term use particularly in children but also in domestic pets such as dogs and cats.
# It has thus been shown that the stability of a drinkable telmisartan solution is dependent on the amount of reducing sugar contained in the sugar alcohol. The stability of a drinkable telmisartan solution deteriorates as the content of reducing sugars increases. […]
compound,measurement,value
"CCCc1nc2c(C)cc(-c3nc4ccccc4n3C)cc2n1Cc1ccc(-c2ccccc2C(=O)O)cc1 [telmisartan, 4′-((2-n-propyl-4-methyl-6-(1-methylbenz-imidazol-2-yl)-benzimidazol-1-yl)methyl)biphenyl-2-carboxylic acid]",pH needed for dissolved active substance in acid range,less than 1.5
